Series [1] addresses T1, human NK1 receptor (Homo sapiens (Human), UniProt P25103). The series is described as follows: Inhibitory effect on human NK1 receptor (substance P-induced increase in intracellular calcium concentration). The series is classed as cell-based. To be noted: substance P 1 μM, compound 0.1 μM; read-out: SPRR (%), Substance P-Response Remaining (intracellular calcium concentration). As to the method: Inhibitory Effect on Human NK1 Receptor
(1) Preparation of Human NK1 Receptor-Expressing Cells
Human NK1 receptor-expressing cells were prepared by the same methods as those described in 2-3 of Test Example 1.
(2) Study on Inhibitory Effect on Increase in Intracellular Calcium Concentration
The human NK1 receptor-expressing cells were washed with 300 μL/well of a washing solution (20 mM HEPES/Hank's Balanced Salt Solution (HBSS) pH 7.3). A fluorescent calcium indicator (Fluo-4 Direct Calcium Assay Kit, Life Technologies, containing 0.42 mM probenecid and 0.1% bovine serum albumin, prepared according to the protocol of the product) was added to the wells at 150 μL/well, and the plate was incubated at 37° C. for 30 minutes in an incubator. Then. DMSO solutions of a test compound, which were prepared at an 80-time higher concentration using 100% dimethyl sulfoxide (DMSO), were added to the wells at 2.5 μL/well (final concentrations of 0.1, 1 and 10 μM), and the solutions were mixed. Then, the plate was further incubated at […] for 30 minutes in an incubator. After 30 minutes, the intracellular calcium concentrations were measured immediately.
The intracellular calcium concentrations were each measured as a fluorescent signal using FDSS (registered trademark) 7000 (Hamamatsu Photonics). A substance P (Peptide Institute. Inc.) solution which was prepared at 0.4 μM or 4 μM using an assay buffer (20 mM HEPES/Hank's Balanced Salt Solution (HBSS) pH 7.3, containing 0.1% bovine serum albumin) was added automatically to each well at 50 μL/well (final concentration of 0.1 or 1 μM) 10 seconds after starting reading, and the fluorescent signal was measured up to 120 seconds.
The intracellular calcium concentration (%) of the cells to which a test compound was added was calculated by the equation below, where the fluorescent signal of the group to which the vehicle (DMSO) was added was regarded as 100%, and the fluorescent signal before the addition of substance P was regarded as 0%. Intracellular calcium concentration (%)—(Fluorescent signal of test compound addition group)/(Fluorescent signal of vehicle addition group)×100
The intracellular calcium concentration (%) calculated was regarded as the remaining agonist activity of substance P (Substance P-Response Remaining: SPRR). In the table, Ex. No. means the Example number. SPRR (%) is the value obtained when the concentration of substance P was 1 μM and the concentration of the compound was 0.1 μM.

The target in another series is human CYP3A4 (Homo sapiens (Human), UniProt P08684). The series is described as follows: Inhibitory effect on CYP3A4. To be noted: 30-minute pre-incubation, Luciferin-IPA substrate; read-out: IC50 (μM), CYP3A4 inhibition. Type of series: in vitro ADME. As for the experimental part:
Inhibitory Effect on CYP3A4
Enzyme reaction was performed by incubating in a potassium phosphate buffer solution (pH 7.4) containing 1 nM to 20 μM test compound, 3.2 mM magnesium chloride, 0.2 pmol human CYP3A4 (BD Biosciences), 0.5 mM reduced nicotinamide adenine dinucleotide phosphate (NADPH) and 3 μM Luciferin-IPA (Promega) at 37° C. for 10 minutes. The volume of the reaction solution was 50 μL/well. The 30-minute pre-incubation group was incubated at 37° C. for 30 minutes before adding tire substrate, the Luciferin-IPA solution (12.5 μL/well). At the end of the enzyme reaction, 50 μL/well of a Luciferin detection reagent (Promega) was added to the wells, and the plate was left at room temperature for 20 minutes. Then, the emission intensities were measured with Infinite M1000 (TECAN). The enzyme activities (%) relative to the value of the group to which the test compound was not added were calculated.

Series [2] is described as follows: Measurement of drug concentrations in the brain after foot-tapping. The series is classed as in vivo. To be noted: male gerbil, 0.1 mg/kg iv, after foot-tapping was finished. As to the method: (§1) A male gerbil (Japan SLC) was anesthetized with isoflurane, and 0.1 mg/kg of a test compound was administered from the jugular vein. After four hours. GR73632 (5 pmol/5 μl saline), which is an NK1 receptor agonist, was administered into the cerebral ventricle at the part 1 mm lateral to and 4.5 mm below the bregma in the head, under anesthesia with isoflurane. After the administration, the gerbil was moved to an observation cage, and the foot-tapping period during 30 minutes after the recovery of the righting reflex was measured. The foot-tapping inhibition rate (%) of each test compound was calculated by the following equation. Foot-tapping inhibition rate (%)−{1−(Fool-tapping period when test compound was administered)/(Foot-tapping period when solvent was administered)}×100 (2) Measurement of Drug Concentrations
After foot-tapping was finished, laparotomy was performed immediately under anesthesia with ether, and a blood sample was taken from the abdominal vena cava. At the same lime, the brain was extracted. Through a quantitative analysis using liquid chromatography-mass spectrometry (LC/MS), the concentrations of the test compound in the plasma and the brain were measured.
(§2) In the table, Ex. No. means the Example number. Inhibition (%) is the loot-tapping inhibition rate, and Cone. (nM) is the drug concentration in the brain.

Series [3] concerns the target T1, human NK1 receptor. As to the kind of experiment: Affinity for human NK1 receptor (125I-substance P receptor binding test, membrane fraction). To be noted: membrane fraction of human NK1 receptor-expressing 293T cells; read-out: IC50 (nM), concentration required for 50% inhibition of 125I-substance P binding. As to the method:
Affinity for Human NK1 Receptor
(3) Measurement of Binding Affinity to Human NK1 Receptor
(3-1) Preparation of Membrane Fraction from Human NK1 Receptor-Expressing Cells
Human NK1 receptor-expressing cells were prepared in a 175 cm^2 culture flask (Nippon Becton Dickinson). The formation of a complex of the human NK1 receptor expression plasmid and Lipofectamine 2000 was performed by calculating the culture area ratio and increasing the scale of the method described in the above 2-4 by the ratio. The human NK1 receptor-expressing cells were collected in a buffer solution for the membrane fraction preparation (50 mM Tris (Wako Pure Chemical), 120 mM sodium chloride (Wako Pure Chemical Industries), 5 mM potassium chloride (Wako Pure Chemical Industries), 1 mM ethylenediaminetetraacetic acid (Sigma), 0.002 mg/mL chymostatin (Peptide Institute), 0.04 mg/bacitracin (Wako Pure Chemical Industries), 0.005 mg/mL phosphoramidon (Peptide Institute) and 0.5 mM phenylmethylsulfonyl fluoride (Wako Pure Chemical Industries), pH7.4) and centrifuged at 1,880 g for 10 minutes, and the cell sediment was suspended in the buffer solution for the membrane fraction preparation. After freezing and thawing the cells once, the cells were homogenized using a Dounce-type homogenizer (cooled on ice, 1000 rpm, 20 times) The homogenized cell suspension was centrifuged at 20,000 rpm for 10 minutes, and the supernatant was removed to obtain cell sediment. The cell sediment was suspended again in the buffer solution for the membrane fraction preparation and homogenized using a Dounce-type homogenizer (cooled on ice, 1000 rpm, 30 times). The cell suspension was centrifuged at 20,000 rpm for 10 minutes, and the supernatant was removed to obtain cell sediment. The same homogenization and centrifugation were repeated again, and final cell sediment was obtained. The final cell sediment was suspended in a buffer solution for the receptor binding test (50 mM Tris (Wako Pure Chemical Industries). 3 mM manganese chloride (Wako Pure Chemical Industries), 0.002 mg/mL chymostatin (Peptide Institute), 0.04 mg/bacitracin (Wako Pure Chemical Industries) and 0.02% bovine serum albumin (Sigma), pH 7.4), and the protein concentration was measured using BCA Protein Assay Kit (Pierce).
(3-2) Receptor Binding Test
The buffer solution for the receptor binding test was dispensed to the wells of a 96-well assay plate (Greiner) at 22.5 μL/well. DMSO solutions of a test compound, which were prepared at an 80-time higher concentration using 100% dimethyl sulfoxide (DMSO), were added to the wells at 2.5 μL/well (final concentrations of 1 nM to 100 nM), and the solutions were mixed. As a radiolabeled ligand, ^125I-substance P (Substance P, [^125I]Tyr^8-, Perkin Elmer) was used. ^125I-substance P was diluted with the buffer solution for the receptor binding test to a concentration resulting in 125 pmol/25 μL/well and added to the 96-well assay plate, and the solutions were mixed. The membrane fraction prepared from the human NK1 receptor-expressing cells was diluted with the buffer solution for the receptor binding test to a concentration resulting in 8 to 10 μg/well, suspended until the suspension became in such a homogenous state that the suspension could flow through a 27G injection needle smoothly and then added to the 96-well assay plate at 150 μL/well. Then, the plate was incubated at room temperature for 60 minutes while shaking the plate. The reaction solutions were suction-filtered through a multiscreen 96-well filter plate (Millipore) which had been pre-treated with 0.3% polyethyleneimine, and the reaction was terminated by washing with a washing solution (50 mM Tris and 0.02% bovine serum albumin, pH 7.4) four times. The bottom of the microplate was dried at 60° C., and then 100 μL/well of MicroScint 20 (PerkinElmer) was dispensed to the wells. The top of the plate was sealed with TopSeal A (PerkinElmer), and the plate was shaken for 5 to 10 minutes. […]

For the next series, the target named is NK1 receptor (Meriones unguiculatus (Mongolian jird) (Gerbillus unguiculatus), UniProt Q5DUB1). The series is described as follows: Effect on foot-tapping induced by NK1 receptor agonist GR73632. The conditions noted are these: male gerbil, 0.1 mg/kg iv, GR73632 after four hours. Type of series: in vivo. As for the experimental part: (1) Effect on Foot-Tapping
Chain of NK1 receptor (Q5DUB1 whole entry): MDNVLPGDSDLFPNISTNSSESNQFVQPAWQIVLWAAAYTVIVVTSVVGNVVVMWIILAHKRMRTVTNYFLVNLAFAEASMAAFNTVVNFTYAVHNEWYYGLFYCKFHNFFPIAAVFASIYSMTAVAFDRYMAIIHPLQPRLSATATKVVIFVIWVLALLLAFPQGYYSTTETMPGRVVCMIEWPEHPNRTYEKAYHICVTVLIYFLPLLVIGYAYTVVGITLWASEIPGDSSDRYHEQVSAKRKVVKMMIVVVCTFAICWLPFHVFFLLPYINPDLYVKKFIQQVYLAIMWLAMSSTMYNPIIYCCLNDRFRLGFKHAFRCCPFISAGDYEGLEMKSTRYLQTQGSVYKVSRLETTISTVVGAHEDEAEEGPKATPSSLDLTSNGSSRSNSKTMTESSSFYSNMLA
The test compound solution was prepared by dissolving the test compound in a vehicle (a mixture of 50% N,N-dimethylacetamide (Wako Pure Chemical Industries), 30% propylene glycol (Wako Pure Chemical Industries). 4% 2-hydroxypropyl-β-cyclodextrin (Wako Pure Chemical Industries) and 16% distilled water).
as §1, §2

Chain of human CYP3A4 (P08684 whole entry): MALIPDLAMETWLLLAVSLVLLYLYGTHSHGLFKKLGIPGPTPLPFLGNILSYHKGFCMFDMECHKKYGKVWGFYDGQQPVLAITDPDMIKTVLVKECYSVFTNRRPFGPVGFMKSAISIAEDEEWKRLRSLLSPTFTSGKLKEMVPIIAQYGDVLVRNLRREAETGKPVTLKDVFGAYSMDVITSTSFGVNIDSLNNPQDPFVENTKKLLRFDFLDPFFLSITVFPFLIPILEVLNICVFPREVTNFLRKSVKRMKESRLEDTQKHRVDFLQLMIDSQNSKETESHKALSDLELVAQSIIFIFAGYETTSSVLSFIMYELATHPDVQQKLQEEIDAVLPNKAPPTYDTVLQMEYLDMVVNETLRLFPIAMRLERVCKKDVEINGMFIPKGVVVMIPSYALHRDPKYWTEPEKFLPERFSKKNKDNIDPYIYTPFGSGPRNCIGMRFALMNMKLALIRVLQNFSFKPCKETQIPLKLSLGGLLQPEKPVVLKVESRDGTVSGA
T1 sequence (P25103 whole entry): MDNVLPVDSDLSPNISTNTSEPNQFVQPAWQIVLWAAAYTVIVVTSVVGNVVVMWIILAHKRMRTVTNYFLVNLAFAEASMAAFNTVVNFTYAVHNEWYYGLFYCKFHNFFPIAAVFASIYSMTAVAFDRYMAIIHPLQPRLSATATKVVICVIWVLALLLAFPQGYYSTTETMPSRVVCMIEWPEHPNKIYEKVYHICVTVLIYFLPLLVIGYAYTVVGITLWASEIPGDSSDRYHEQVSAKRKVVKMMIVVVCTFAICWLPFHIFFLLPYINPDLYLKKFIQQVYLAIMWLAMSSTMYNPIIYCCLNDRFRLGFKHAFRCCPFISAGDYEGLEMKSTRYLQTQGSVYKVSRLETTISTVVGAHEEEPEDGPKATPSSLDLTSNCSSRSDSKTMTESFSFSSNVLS

Take `Cc1cc(F)ccc1-c1cc(C2CCC(CCC(=O)O)CC2)ncc1N(C)C(=O)C(C)(C)c1cc(C(F)(F)F)cc(C(F)(F)F)c1` (stereo not drawn) [Example 2, 3-{4-[5-{[2-(3,5-Bistrifluoromethylphenyl)-2-methylpropionyl]methylamino}-4-(4-fluoro-2-methylphenyl)pyridin-2-yl]cyclohexyl}propionic Acid]: the remaining activity at 0.1 µM on human NK1 receptor [1] was found to be 7.5%. Moreover, the IC50 on human CYP3A4 is 6.8 µM. Moreover, the “Conc. (nM), drug concentration in the brain” value (from here on “Conc. (nM), drug concentration”) in series [2] was 19 nM.
As for `Cc1cc(F)ccc1-c1cc(C2CCC(CC(=O)O)CC2)ncc1N(C)C(=O)C(C)(CO)c1cc(C(F)(F)F)cc(C(F)(F)F)c1` (stereo not drawn) [Example 5, {4-[5-{[2-(3,5-Bistrifluoromethylphenyl)-3-hydroxy-2-methylpropionyl]methylamino}-4-(4-fluoro-2-methylphenyl)pyridin-2-yl]cyclohexyl}acetic Acid], the IC50 at human NK1 receptor [3] stood at 0.98 nM; at human CYP3A4 it was 13 µM. The remaining activity at 0.1 µM on human NK1 receptor [1] was found to be 26%.
On the same counts, the results for `Cc1cc(F)ccc1-c1cc(C2CCC(O)(CC(=O)O)CC2)ncc1N(C)C(=O)C(C)(C)c1cc(C(F)(F)F)cc(C(F)(F)F)c1` (stereo not drawn) [Example 6, {4-[5-{[2-(3,5-Bistrifluoromethylphenyl)-2-methylpropionyl]methylamino}-4-(4-fluoro-2-methylphenyl)pyridin-2-yl]-1-hydroxycyclohexyl}acetic Acid] are 1 nM, 6.1 µM and 21%.
Turning to `Cc1cc(F)ccc1-c1cc([C@H]2CC[C@@H](C(C)(C)C(=O)O)CC2)ncc1N(C)C(=O)C(C)(C)c1cc(C(F)(F)F)cc(C(F)(F)F)c1` [Example 12, cis-2-{4-[5-{[2-(3,5-Bistrifluoromethylphenyl)-2-methylpropionyl]methylamino}-4-(4-fluoro-2-methylphenyl)pyridin-2-yl]cyclohexyl}-2-methylpropionic Acid], the IC50 on human NK1 receptor [3] was 4.46 nM; at human CYP3A4, 2.2 µM. Also, at human NK1 receptor [1], the remaining activity at 0.1 µM is 53%.
In the case of `Cc1cc(F)ccc1-c1cc(C2CCC(C)(CC(=O)O)CC2)ncc1N(C)C(=O)C(C)(C)c1cc(C(F)(F)F)cc(C(F)(F)F)c1` (stereo not drawn) [Example 15, {4-[5-{[2-(3,5-Bistrifluoromethylphenyl)-2-methylpropionyl]methylamino}-4-(4-fluoro-2-methylphenyl)pyridin-2-yl]-1-methylcycloheyl}acetic Acid], the remaining activity at 0.1 µM on human NK1 receptor [1] came out at 3.7%. The “Inhibition (%), foot-tapping inhibition rate” value on NK1 receptor turned out to be 100%. In series [2], the “Conc. (nM), drug concentration” value worked out at 39 nM.
With `Cc1cc(F)ccc1-c1cc(C2CCC(CC(=O)O)CC2)nc(Cl)c1N(C)C(=O)C(C)(C)c1cc(C(F)(F)F)cc(C(F)(F)F)c1` (stereo not drawn) [Example 17, {4-[5-{[2-(3,5-Bistrifluoromethylphenyl)-2-methylpropionyl]methylamino}-6-chloro-4-(4-fluoro-2-methylphenyl)pyridin-2-yl]cyclohexyl}acetic Acid], the IC50 on human CYP3A4 is 3.3 µM. For the same compound, the “Conc. (nM), drug concentration” value in series [2] is given as 57 nM.
For the compound `Cc1cc(F)ccc1-c1cc(C2CCC(CC(=O)O)CC2)nc(CO)c1N(C)C(=O)C(C)(C)c1cc(C(F)(F)F)cc(C(F)(F)F)c1` (stereo not drawn) [Example 19, {4-[5-{[2-(3,5-Bistrifluoromethylphenyl)-2-methylpropionyl]methylamino}-4-(4-fluoro-2-methylphenyl)-6-hydroxymethylpyridin-2-yl]cyclohexyl}acetic Acid], the IC50 at human NK1 receptor [3] came to 4.96 nM. Also, the remaining activity at 0.1 µM at human NK1 receptor [1] turned out to be 26%. Also, the “Inhibition (%), foot-tapping inhibition rate” value on NK1 receptor was found to be 95%. In series [2], the “Conc. (nM), drug concentration” value stood at 24 nM.

Source of the values: patent US10011568B2, “Cyclohexyl pyridine derivative” (priority 2014, dated 2018).
